These results are taken from article PMC12648657, “Sc(III) Complexes of 1,4,7-Triazacyclononane-1,4,7-triacetic Acid and Its Monoamides” (Inorganic Chemistry, 2025).

For data set [1] the following is noted: Sc^III complexes of other ligands; literature values; cited from earlier work.
The conditions of data set [2]: comparison table; literature value; cited from earlier work.
For data set [3] the following is noted: comparison table; literature value; cited from earlier work. The source holds these as a separate data set.
For data set [4] the following is noted: comparison table; literature value; cited from earlier work. This is another data set of the same source.
The conditions of data set [5]: comparison table; literature value; cited from earlier work. This is another data set of the same source.
Data set [6] is described as follows: Potentiometric determination of stability constants of Sc^III complexes. The conditions noted are these: for log K, [Sc(L)] + HL ↔ [M(HL)(L)]: I = 0.1 M NMe4Cl, coordination of second ligand molecule. Type of data set: physicochemical. Here is the method: Potentiometry was carried out according to the previously published procedures; for the preparation of stock solutions and chemicals, equipment, electrode system calibration, titration procedures and data treatment, see refs – . Throughout the paper, pH means −log[H^+]. The protonation and stability constants were determined in 0.1 M (NMe4)Cl at 25.0 °C with pK w = 13.81. The Sc^III–H3nota system was studied by in-cell titrations from data obtained in the pH range 1.6–12 with ∼40 points per titration and four parallel titrations (c L = 0.004 M, c Sc = 0.004 or 0.002 M). The Sc^III–H2 L ^1 and Sc^III–H2 L ^2 systems were studied by a combination of the out-of-cell and in-cell methods. The out-of-cell method was performed at 1:1 ligand-to-metal ratio (c L = c Sc = 0.004 M, pH 1.5–5.0, 15–25 points per titration), and the in-cell method was performed at 1:1 and 2:1 ligand-to-metal ratios (c L = c Sc = 0.004, pH 5.0–12.0 or until precipitation of hydroxide, 15–20 points per titration; or c L = 0.004 M, c M = 0.002 M, pH 2.0–11.5, ∼40 points per titration). […] Stability constants for the Sc^III–OH^– system were taken from the literature. Protonation constants of ligands were adopted from literature–H3nota: 13.17, 5.74, 3.22, 1.96, 0.70; H2 L ^1 : 13.03, 4.24, 2.04, 0.67; H2 L ^2 : 12.93, 4.91, 2.48, 0.92.
High thermodynamic stability of complexes is an important property of metal complexes used in radio medicine. Thus, stability constants of the Sc^III complexes with the studied chelators were determined by potentiometry. Complexation of Sc^III by H3nota was fast, and thus, it was studied by the direct titration technique (in-cell method). Complexation of Sc^III by H2 L ^1 and H2 L ^2 was slower in the acidic region (pH < 3) and, thus, the batch titrations (out-of-cell method) had to be applied. In addition, the systems were studied in-cell in the neutral and weakly alkaline regions. The strongly alkaline region cannot be studied in the Sc^III–H2 L ^1 and Sc^III–H2 L ^2 systems due to decomposition of the complexes and precipitation of Sc^III hydroxide.

For data set [7] the following is noted: comparison table; literature value; cited from earlier work. This is another data set of the same source.
Data set [8] can be described thus: Solution stability of Sc^III complexes (alkaline solution, excess oxalate). Type of data set: physicochemical. The following applies: slowly decompose in strongly alkaline solutions or under excess oxalate, yielding insoluble Sc^III oxalate or hydroxide. The protocol: The NMR experiments were carried out on the Bruker Avance III 600 (with a cryoprobe), Bruker Avance III HD 400 or Varian VNMRS 300 MHz or Varian Unity Inova-400 spectrometers in 5 mm tubes. Chemical shifts are given in ppm, and the coupling constants are in Hz. All NMR spectra were collected at 25 °C. The shifts were referenced with external standards: 0.1% tBuOH in D2O (^1H δ 1.25 ppm, ^13C δ 30.30 ppm). External reference for ^45Sc was 0.1 M solution of Sc(ClO4)3 in 1 M aq. HClO4. The pH of samples was adjusted with diluted aq. HCl or aq. LiOH (∼0.5%), or maintained with 0.25 M imidazole/HCl buffer. Binary complexes were prepared by mixing solid ligands (typically at a final concentration of 25 mM) with standardized ScCl3 solution in Sc/L 1:1 or 1:2 molar ratios. Ternary complexes with oxalate anions were studied by mixing a lithium(I) oxalate aq. solution (25 mM) and variable amounts of stock solutions (200 mM) of Sc^III complexes with the studied ligands.

Turning to `O=C([O-])CN1CCN(CC(=O)[O-])CCN(Cc2cccc(C(=O)[O-])n2)CC1.[Sc+3]` [[Sc(mpatcn)]], the “log K [M(L)] of Sc^III complex” value in data set [1] is listed as 21–26.
As for `O=C(O)CN1CCN(CC(=O)O)CCN(CC(=O)O)CC1` [H3nota, 1,4,7-Triazacyclononane-1,4,7-triacetic Acid], in data set [2], the “Stability constant log K ML, Zn^II” value is 22.32. In data set [3], the “Stability constant log K ML, Cu^II” value was 23.33. In data set [4], the “Stability constant log K ML, Pb^II” value is 18.18. Also, the “Stability constant log K ML, Cd^II” value in data set [5] is listed as 17.87. In addition, in data set [6] (I = 0.1M (NMe4)Cl, 25 °C), the “Overall stability constant logβ, Sc + 2 L + H+ ⇄ [Sc(HL)(L)]” value is 35.78(6); the “Overall stability constant logβ, Sc + L + H2O ⇄ [Sc(L)(OH)] + H+” value is given as 11.73(2); the “Overall stability constant logβ, Sc + L ⇄ [Sc(L)]” value is 19.50(1); the “log K, Sc + L ↔ [Sc(L)]” value came to 19.50. Moreover, the “log K, [Sc(L)(OH)] + H+ ↔ [M(L)(H2O)]” value in data set [6] (I = 0.1M (NMe4)Cl, 25 °C) was determined as 7.77. For the same molecule, the “log K, [Sc(L)] + HL ↔ [M(HL)(L)]” value in data set [6] (25 °C) amounted to 3.11. The “Stability constant log K ML, Sc^III” value in data set [6] (comparison table) stood at 19.50. Also, the “Stability constant log K ML, Ga^III” value in data set [7] was 29.60.
`CCNC(=O)CN1CCN(CC(=O)O)CCN(CC(=O)O)CC1` [H2 L ^1]: the “Stability constant log K ML, Zn^II” value in data set [2] is recorded as 18.89. Besides, the “Stability constant log K ML, Cu^II” value in data set [3] was 21.37. In data set [6] (I = 0.1M (NMe4)Cl, 25 °C), the “Overall stability constant logβ, Sc + L ⇄ [Sc(L)]” value is 16.64(1); the “log K, Sc + L ↔ [Sc(L)]” value came to 16.64; the “log K, [Sc(L)(OH)] + H+ ↔ [M(L)(H2O)]” value came out at 7.36. Besides, the “log K, [Sc(L)] + HL ↔ [M(HL)(L)]” value in data set [6] (25 °C) is 2.86. For the same molecule, the “Stability of Sc^III complex in solution” value in data set [8] is “limited stability”.
`O=C([O-])CN(CCN(CC(=O)[O-])CC(=O)[O-])CCN(CC(=O)[O-])CC(=O)[O-].[Sc+3]` [[Sc(dtpa)]^2–]: the “log K [M(L)] of Sc^III complex” value in data set [1] is recorded as 27.43.
In the case of `O=C(O)CN1CCN(Cc2cccc(C(=O)O)n2)CCN(CP(=O)(O)O)CC1` [H4mpatcn-P], the “log K [M(L)] of Sc^III complex” value in data set [1] was 21–26.
In the case of `O=C(O)CN1CCN(CC(=O)O)CCN(Cc2cccc(P(=O)(O)O)n2)CC1` [H4mpatcn-PyP], the “log K [M(L)] of Sc^III complex” value in data set [1] is given as 21–26.
